Results from publication PMC9995496, “A screen for MeCP2-TBL1 interaction inhibitors using a luminescence-based assay” (Scientific Reports, 2023).
Ends that are not written are not given here. * marks the point of attachment. Biotin = O=C1N[C@H]2[C@H](CS[C@H]2CCCCC(=O)*)N1

Target: T1, MeCP2-TBL1 interaction (MeCP2-SmBiT / TBL1-LgBiT) (Mus musculus, UniProt Q9QXE7)
T1 construct: expressed in transfected cells; crude lysate used as a cell-free assay
T1 sequence (Q9QXE7 166-527): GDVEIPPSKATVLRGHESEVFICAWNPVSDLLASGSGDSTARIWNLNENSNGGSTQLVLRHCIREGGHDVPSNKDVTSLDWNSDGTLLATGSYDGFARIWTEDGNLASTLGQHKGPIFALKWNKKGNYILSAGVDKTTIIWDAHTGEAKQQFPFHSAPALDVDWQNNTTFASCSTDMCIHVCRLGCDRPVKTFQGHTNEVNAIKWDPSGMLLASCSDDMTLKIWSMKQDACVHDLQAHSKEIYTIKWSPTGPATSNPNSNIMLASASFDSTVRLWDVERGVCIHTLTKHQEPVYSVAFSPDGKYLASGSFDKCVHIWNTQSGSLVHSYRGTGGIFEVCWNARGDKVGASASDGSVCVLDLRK
Assay: MeCP2-TBL1 NanoLuc luciferase complementation assay (cell-free, extracts of transfected HEK293 cells)
Assay type: binding, human
Excerpt: To facilitate the discovery of inhibitors of the interaction between MeCP2 and TBL1/TBLR1, we set out to devise a simple and scalable biochemical assay for measuring the interaction between these two proteins. We initially explored the possibility of screening compound libraries using a previously established fluorescence polarization assay that depends on purified recombinant TBL1/TBLR1[26]. […] The resulting luminescence signal depends on the affinity between the two interacting proteins of interest (Fig. 1A). This method was originally developed to allow for the interrogation of protein–protein interactions in vivo. However, in order to facilitate large scale screening of chemical libraries, we adapted the assay for use as a cell-free system.
We fused the large N-terminal fragment of NanoLuc (LgBiT) to the C-terminus of the WD repeat domains of both TBL1 and TBLR1, and the small C-terminal fragment of NanoLuc (SmBiT) to the C-terminus of the C-terminal half of MeCP2 (Fig. 1B and C). This region of MeCP2 contains the NID (NCoR interaction domain)—the motif in MeCP2 that binds to TBL1/TBLR1.
The AgeI-NotI restriction fragment (encoding EGFP) was then replaced with a codon optimized SmBiT sequence to yield the MeCP2-SmBiT expression plasmid. The TBL1-LgBiT expression vector was derived from a TBL1-mCherry plasmid[25] by replacing the AgeI-NotI restriction fragment (encoding mCherry) with a codon optimized LgBiT sequence. SmBiT-PRKACA and LgBiT-PRKAR2A plasmids are commercially available (Promega, N203 and N204).
Cells were harvested after 24 h and cell pellets were stored at − 80 °C.
In the screens described here, the lysate obtained from a single 15 cm plate was used for 2.5 384-well assay plates. NanoLuc substrate (furimazine) (Promega, N1110) was diluted 1000-fold in passive lysis buffer (Promega, E1941) and added 1:1 to the lysate. Screening libraries were purchased from Asinex[40] and ApexBio (FDA-approved Drug Library, L1021). Compounds were dispensed using an Echo acoustic dispenser and tested at a final concentration of 20 µM in a total assay volume of 20 μl in 384-well plate format. DMSO was added to each well at a final concentration of 0.2% (v/v) and wells containing only DMSO were used as negative control. After 30 min incubation at room temperature, luminescence was measured on a Tecan M1000 multi-mode plate reader. Raw luminescence reads from each well on each plate were normalized to the median luminescence signal for that plate. In the ApexBio screen, the scaled and normalized PKA signal for each compound was subtracted from the MeCP2-TBL1 signal for the same compound. After plate normalization the robust SSMD (SSMD*) was calculated as described elsewhere. A threshold of SSMD* ≥ 3 was applied for discerning primary hits.
Assays were performed as described above except instead of a single concentration, a threefold serial dilution ranging from 60 to 0.03 μM was tested in triplicate for each of the compounds. Half-maximal inhibitory concentrations were calculated using global nonlinear regression by fitting the response data sets of all compounds simultaneously with a four-parameter logistic curve of log inhibitor concentration versus normalized luminescence using GraphPad Prism. During fitting, the maximum and minimum curve values were shared between the data sets.

[1] = primary screen of the Asinex library, sheet "Sargen output Asinex library", one well per compound
[2] = primary screen of the Asinex library, sheet "Sargen output Asinex library", one well per compound, Batch Ref. 1
[3] = primary screen of Asinex library, single well per compound

Molecule: 35 amino acid peptide: 35 amino acid MeCP2 wild-type NID peptide (residues 285-319), N-terminal biotin (Biotin-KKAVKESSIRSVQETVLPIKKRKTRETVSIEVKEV; UniProt P51608 285-319, looked up, fragment) [reference compound]
- effect of competitor peptide on MeCP2-TBL1 luminescence signal (peptide at 20 µM, n = 2): strongly inhibited

Molecule: O=C(Cn1cccc(C(=O)NCc2ccccc2)c1=O)NC1(c2ccccc2)CCCC1 [BDB_26402348]
- Inhibition percent [1]: 2.11%

Molecule: CN(Cc1ccc2ncccc2c1)C(=O)Cn1cc(C(=O)NCc2ccccc2)ccc1=O [BDB_26410269]
- Inhibition percent [1]: -0.72%

Molecule: O=C(Cn1cc(C(=O)NC2CCCCC2)ccc1=O)NCC1(c2ccccc2Cl)CC1 [BDB_26414870]
- Inhibition percent [2]: 4.99%

Molecule: C=CCC1(CC=C)CCN1C(=O)C1(Cc2ccc(-c3cccnc3)cc2)CCOCC1 [BDC_20667788]
- Inhibition percent [2]: -1.31%

Molecule: Cc1cccc(CC(=O)N2CCC(Cc3cccc(-c4cccnc4)c3)(C(N)=O)CC2)c1 [BDC_22461702]
- Inhibition percent [2]: -2.13%

Molecule: CCOc1ccc(CN2CCCC2c2ncc(C(=O)NCc3ccc(F)cc3)c(C)n2)cc1 (stereo not shown) [BDC_23170699]
- Inhibition percent [2]: -3.60%

Molecule: Cc1cccc(CC(=O)N2CCCCC2c2ncc(C(=O)NCc3ccccc3)c(C)n2)c1 (stereo not shown) [BDC_23190776]
- Inhibition percent [2]: -1.94%

Molecule: Cc1ccc(CC(=O)N2CCCC(c3ncc(C(=O)NCc4ccccc4)c(C)n3)C2)cc1 (stereo not shown) [BDC_23198767]
- Inhibition percent [1]: -0.69%

Molecule: COc1ccccc1NC(=O)C1CN(C(=O)COc2ccccc2)Cc2cn(C)nc21 (stereo not shown) [BDC_23414979]
- Inhibition percent [2]: -4.37%

Molecule: COc1ccc(CNC(=O)c2cnc(C)nc2C2CCCCN2C(=O)c2cnccn2)cc1 (stereo not shown) [BDC_23571437]
- Inhibition percent [1]: 0.37%

Molecule: CNC(=O)c1cnc(C)nc1C1CCCCN1CCS(=O)(=O)c1ccccc1 (stereo not shown) [BDC_23573041]
- Inhibition percent [1]: -1.44%

Molecule: Cc1ncc(C(=O)N2CCOCC2)c(C2CCCCN2C(=O)c2nccc3ccccc23)n1 (stereo not shown) [BDC_23573125]
- Inhibition percent [3]: -0.64

Molecule: COc1ccc(C2CCCN2C(=O)Cn2cc(NC(=O)Cc3ccccc3F)cn2)cc1 (stereo not shown) [BDC_25693383]
- Inhibition percent [1]: -0.19%

Molecule: COc1cccc(Cc2cccc(C3CCCN(Cc4ccncc4)C3)n2)c1 (stereo not shown) [BDC_27849507]
- Inhibition percent [3]: -4.87

Molecule: COc1ccc(Cc2cccc(C3CCN(C(=O)Cc4ccc(F)cc4)CC3)n2)cc1 [BDC_27855593]
- Inhibition percent [1]: 0.65%

Molecule: CNc1ncccc1CN1CCCC(c2cccc(Cc3cccc(F)c3)n2)C1 (stereo not shown) [BDC_27866586]
- Inhibition percent [1]: 7.34%

Molecule: CCN1C(=O)CC[C@@H](C(=O)NCCOc2ccccc2)[C@@H]1c1ccccc1F [BDC_32230426]
- Inhibition percent [2]: 0.19%

Molecule: COCCN1C(=O)C[C@@H](C(=O)NCc2ccccc2COC)[C@@H]1c1ccccc1 [BDC_32231307]
- Inhibition percent [3]: -0.68

Molecule: O=C1CCCC[C@]2(CN(Cc3ccc(-c4ccccc4)cc3)C[C@H]2c2cc(F)cc(F)c2)N1 [BDD_20406167]
- Inhibition percent [2]: 4.82%

Molecule: CCN1CCN(C(=O)CCC2NC(=O)NC2=O)C(Cc2ccc(-c3ccccc3)cc2)C1=O (stereo not shown) [BDD_21846702]
- Inhibition percent [3]: -2.65

Molecule: COc1cccc(C(=O)N2CCNC(=O)C2Cc2cccc(-c3cccc(F)c3)c2)c1OC (stereo not shown) [BDD_21847933]
- Inhibition percent [2]: 1.68%

Molecule: C=CCN1CCN(C(=O)Cc2cccnc2)C(Cc2ccc(-c3cccs3)cc2)C1=O (stereo not shown) [BDD_21855492]
- Inhibition percent [1]: 0.61%

Molecule: CCN1CCN(C(=O)Cc2ccccc2OC)C(Cc2cccc(-c3ccncc3)c2)C1=O (stereo not shown) [BDD_21872283]
- Inhibition percent [2]: -1.27%

Molecule: O=C1CC(C(=O)N2CCNC(=O)C2Cc2cccc(-c3ccccc3)c2)c2ccccc2N1 (stereo not shown) [BDD_21879577]
- Inhibition percent [2]: 4.73%

Molecule: CCN1CCN(C(=O)Cc2ccccc2OC)C(Cc2ccc(-c3cccnc3)cc2)C1=O (stereo not shown) [BDD_21886831]
- Inhibition percent [2]: -2.52%

Molecule: CN(Cc1cccc(F)c1)Cc1nc(C2CC(=O)N(Cc3ccccc3)C2)cc(N(C)C)n1 (stereo not shown) [BDD_23510085]
- Inhibition percent [1]: -0.99%

Molecule: O=C1CCC[C@]2(CN(Cc3cccc(-c4ccccc4F)c3)C[C@H]2c2ccccc2F)N1 [BDD_23570797]
- Inhibition percent [2]: 11.53%

Molecule: O=C1CCC[C@]2(CN(Cc3cccc(-c4ccccc4F)c3)C[C@H]2c2ccc(F)c(F)c2)N1 [BDD_23570819]
- Inhibition percent [2]: 11.60%

Molecule: COc1ccccc1-c1ccc(CN2C[C@@H](c3cccc(NC(C)=O)c3)[C@@]3(CCCCC(=O)N3)C2)cc1 [BDD_23570835]
- Inhibition percent [2]: 5.89%

Molecule: COc1ccccc1-c1cccc(CN2C[C@@H](c3cc(F)cc(F)c3)[C@@]3(CCCCC(=O)N3)C2)c1 [BDD_23570836]
- Inhibition percent [2]: 1.23%

Molecule: Cc1ncc(C(=O)NCc2ccccc2)c(CC2CCN(C(=O)C3CCCCC3)CC2)n1 [BDD_23848427]
- Inhibition percent [2]: -4.61%

Molecule: Cc1cnc(C(=O)N2CCC(Cc3nc(C)ncc3C(=O)NCc3ccccc3)CC2)cn1 [BDD_23852576]
- Inhibition percent [1]: 0.67%

Molecule: COCCNC(=O)c1sc2ccccc2c1C1CN(C(=O)C(C)(C)OC)CCO1 (stereo not shown) [BDD_24015180]
- Inhibition percent [2]: -2.46%

Molecule: CN1CCC(c2c(C(=O)NCCS(=O)(=O)NC3CCCCC3)sc3ccccc23)C1 (stereo not shown) [BDD_24044260]
- Inhibition percent [3]: -0.05

Molecule: NC(=O)c1cc(C2CN(C(=O)c3ccnc(N4CCCCC4)c3)CCO2)nc2ccccc12 (stereo not shown) [BDD_24083754]
- Inhibition percent [2]: -2.41%

Molecule: O=C(Cn1cccn1)N1CCOC(c2cc(C(=O)N3CCOCC3)c3ccccc3n2)C1 (stereo not shown) [BDD_24083810]
- Inhibition percent [2]: -2.04%

Molecule: COc1ccc(F)cc1-c1cccc(CC2(C(=O)NCCN3CCCCC3C)CCOCC2)c1 (stereo not shown) [BDD_24116196]
- Inhibition percent [1]: 5.71%

Molecule: Cc1cc(C)cc(-c2cccc(CC3(C(=O)NCCCN4CCC(C)CC4)CCOCC3)c2)c1 [BDD_24116218]
- Inhibition percent [1]: -2.01%

Molecule: CCCC(=O)N1Cc2ccccc2OC2(CCC(N(C)CC3CCCCC3)CC2)C1 (stereo not shown) [BDD_24804536]
- Inhibition percent [1]: -1.18%

Molecule: CC(=O)Nc1cccc([C@@H]2CN(Cc3ccc4c(c3)n(C)c(=O)n4C)C[C@]23CCCCC(=O)N3)c1 [BDD_25153608]
- Inhibition percent [1]: -1.53%

Molecule: Cc1cccc(Nc2ccc(C3CCCN3C(=O)COc3ccc4c(c3)OCCO4)nc2)n1 (stereo not shown) [BDD_25671481]
- Inhibition percent [2]: 3.48%

Molecule: Cc1cc(-c2cnc(C(C)(C)C)nc2C2CCN(Cc3ccc(N4CCCC4)cc3)CC2)on1 [BDD_25871827]
- Inhibition percent [1]: 3.48%

Molecule: Cn1c(=O)c2ccc(C3CCCCN3C(=O)c3cc[nH]n3)nc2n(Cc2ccccc2)c1=O (stereo not shown) [BDD_26868519]
- Inhibition percent [1]: 4.40%

Molecule: COc1ccccc1CNC(=O)c1cn(C)nc1CC1CCN(C(=O)c2cccnc2)CC1 [BDD_26909786]
- Inhibition percent [2]: -3.87%

Molecule: Cn1cc(CCC(=O)N2CCCC2c2ccc(CNC3Cc4ccccc4C3)cn2)c2ccccc21 (stereo not shown) [BDD_27352850]
- Inhibition percent [1]: -1.33%

Molecule: Cc1nc2c(c(Nc3ccccn3)n1)CCN(S(=O)(=O)c1cccc(C(F)(F)F)c1)CC2 [BDD_27755359]
- Inhibition percent [2]: 6.69%

Molecule: CC(C)(C)OC(=O)Nc1cc(-c2c[nH]nc2C2CCCCN2C(=O)OC(C)(C)C)ccn1 (stereo not shown) [BDD_27845058]
- Inhibition percent [2]: 10.59%

Molecule: CCOc1ccccc1NC(=O)N(C(C)c1ccccc1)C1CCn2c1nc1ccccc1c2=O (stereo not shown) [BDD_27845157]
- Inhibition percent [1]: -3.22%

Molecule: O=C(c1ccccn1)N1CCCC1c1cccc(Cc2ccc(C(F)(F)F)cc2)n1 (stereo not shown) [BDD_27852665]
- Inhibition percent [2]: -2.94%

Molecule: COc1cccc(Cc2cccc(C3CCCN3C(=O)Cc3ccncc3)n2)c1 (stereo not shown) [BDD_27854270]
- Inhibition percent [1]: -2.15%

Molecule: COc1ccccc1Cc1cccc(C2CCCN2C(=O)Cc2c[nH]c3ccccc23)n1 (stereo not shown) [BDD_27856210]
- Inhibition percent [2]: 9.99%
